The assay deals with T1, NcFADS (Neurospora crassa, UniProt Q7SCU7).
T1 sequence (Q7SCU7 49-318): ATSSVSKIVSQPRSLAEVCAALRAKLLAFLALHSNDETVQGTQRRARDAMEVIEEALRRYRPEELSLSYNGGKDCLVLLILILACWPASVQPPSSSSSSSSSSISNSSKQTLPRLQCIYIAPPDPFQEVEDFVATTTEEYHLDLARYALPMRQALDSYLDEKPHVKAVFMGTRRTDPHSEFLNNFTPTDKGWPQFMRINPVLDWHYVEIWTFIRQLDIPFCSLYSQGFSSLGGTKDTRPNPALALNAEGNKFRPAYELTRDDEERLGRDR
The assay can be described thus: isothermal titration calorimetry. The assay is classed as binding. On the technique in general: ITC needs no label: the signal is the heat of the interaction.

The structures appear in SMILES notation.

In turn, `Nc1ncnc2c1ncn2[C@@H]1O[C@H](COP(=O)(O)OP(=O)(O)OP(=O)(O)O)[C@@H](O)[C@H]1O` [MgATP^2−] had a Kd of 16.6 µM.

`Cc1cc2nc3c(=O)[nH]c(=O)nc-3n(C[C@H](O)[C@H](O)[C@H](O)COP(=O)(O)O)c2cc1C` [FMN] gave an equilibrium dissociation constant (Kd) of 20.8 µM.

One may read the Kd as the constant that tells how readily two partners part at equilibrium. Low values mean tighter binding, high ones weaker binding.
